Among the data in PubChem BioAssay AID504322 (Emory University Molecular Libraries Screening Center, 2011) are IC50 values, retold here.

Active and inactive are the calls of the source. The rule behind the calls is not given here.

In the experiment the test system is CHOP reporter cell assay, percent of control. Briefly: CHOP reporter inhibitor potency, dose response, cell-based (AID 504322).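 Note: CHO cells carrying a CHOP reporter stimulated with tunicamycin to induce ER stress; potency is for inhibition of the stress-induced reporter signal.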

As to `CCCNC(=O)c1nnsc1S(=O)c1ccc(Cl)cc1` (centres undefined), the IC50 is 5.55 µM (inactive).
In the case of `Fc1ccc(-c2nn(-c3ccccc3)cc2CNCc2ccccc2)cc1` it was 9.62 µM (inactive); in that of `COc1ccc(C(=O)NC(=O)Nc2cc(C)ccn2)cc1`, 9.99 µM (inactive).
In the case of `COCCn1c(=NC(=O)/C=C/c2cccs2)sc2cc(NC(C)=O)ccc21` it was > 10 µM (inactive).
For `CC(C)c1ccc(C2C3CSCC=C3C(C#N)=C(N)C2(C#N)C#N)cc1` (centres undefined), the IC50 is 9.55 µM (inactive).
Next, `COc1ccc(N2C(=O)CC(Sc3nnnn3-c3ccc(F)cc3)C2=O)cc1` (centres undefined): 0.24 µM.
In the case of `Cc1cc(C2=NNC(=NC3CC3)SC2)c(C)n1-c1ccccc1`, the IC50 was < 0.16 µM (inactive).
Next, `CCCCCCCCCCCCCCCC[n+]1cccc2ccccc21`: 0.41 µM.
In the case of `COc1ccc(/C=N\NC(=O)COc2ccc(C(C)(C)C)cc2)cc1Cn1nc(C)cc1C` it was 2.99 µM.
As for `O=C(Nc1ccc(-c2nc3ccccc3s2)cc1)C1=COCCO1`, the IC50 is 7.48 µM (inactive).
In the case of `CCOc1ccc(/C=N/NC(=O)c2cc(-c3ccco3)nc3ccccc23)cc1` it was 5.15 µM (inactive); in that of `O=C1N(c2ccccc2)C[C@@H]2C[C@@H](c3cccs3)N3CCC[C@@]123`, 5.69 µM (inactive); in that of `COc1ccc(-c2nc(NC(=O)Cn3ccc(C(F)(F)F)n3)sc2C)cc1`, > 10 µM (inactive).
In the case of `Cc1ccc(-c2nn(-c3ccccc3)cc2/C=N/NC(=O)c2ccc(Br)o2)cc1` it was 5.04 µM.
In the case of `CS(=O)(=O)c1ncc(Cl)c(C(=O)Nc2ccc(N3CCOCC3)cc2)n1` it was > 10 µM (inactive); in that of `O=C(/C=C\c1cn(-c2ccccc2)nc1-c1ccccc1)Nc1nccs1`, 6.03 µM (inactive); in that of `CCc1ccc(-c2cc(C(=O)N3N=C(C(F)F)CC3(O)C(F)F)c3ccccc3n2)cc1` (centres undefined), 5.26 µM (inactive).
Turning to `CC(=O)OCCCNc1cc(Sc2ccc(Cl)cc2)c2nonc2c1[N+](=O)[O-]`, the IC50 was > 10 µM (inactive).
As for `CC(C)(C)OC(=O)NCCc1nnc(S(=O)(=O)Cc2ccc(Cl)cc2Cl)o1`, the IC50 is > 10 µM (inactive).
Next, `CCOC(=O)N1CCC(n2c(=S)[nH]c3cc(OCC)c(OCC)cc3c2=O)CC1`: 4.35 µM (inactive).
In the case of `COc1cc([C@@H]2c3cc4c(cc3[C@@H](O)[C@@H](CO)[C@@H]2CO)OCO4)cc(OC)c1O[Si](C)(C)C(C)(C)C` it was 6.02 µM (inactive).
As to `CCCCc1nc2ccccc2c(=O)n1NC(=O)c1c(O)c2ccccc2n(C)c1=O`, the IC50 is > 10 µM (inactive).
Next, `CCCCCCOC(=O)c1ccccc1N`: 6.31 µM (inactive); `CC(C)c1ccc(-c2cc(C(=O)N3N=C(C(F)F)CC3(O)C(F)F)c3ccccc3n2)cc1` (centres undefined): 8.38 µM (inactive); `Cc1ccc(N(c2ncnc(N)c2[N+](=O)[O-])C2CCCCC2)cc1`: > 10 µM (inactive).
Next, `O=C1c2ccccc2C(=O)C1c1nccc2ccccc12`: 5.41 µM (inactive); `CCCc1cc(-c2nc(N)ncc2-c2ccc3c(c2)OCCCO3)c(O)cc1OC`: 8.02 µM (inactive); `O=C1C(N2CCOCC2)=C(n2nnc3ccccc32)C(=O)c2ccccc21`: 9.64 µM (inactive).
In the case of `Cc1nn(-c2ccc(C(F)(F)F)cn2)c(C)c1Oc1ccccc1O` it was 5.94 µM (inactive); in that of `N=c1n(CC(=O)c2ccc([N+](=O)[O-])cc2)c2ccccc2n1Cc1ccc(Cl)cc1`, > 10 µM (inactive); in that of `O=C(Cc1ccccc1)Nc1cccc(N2C(=O)C=CC2=O)c1`, 9.71 µM (inactive).
As to `CCOC(=O)c1cc(-c2cccs2)nc2c1c(C)nn2-c1ccccn1`, the IC50 is 9.14 µM (inactive).
For the compound `FC(F)C(F)(F)C(F)(F)C(F)(F)c1cc(-c2ccccc2)n[nH]1`, the IC50 was 9.67 µM (inactive).
Next, `CC(C)c1ccc(O)c(NC(=S)NC(=O)CCc2ccccc2)c1`: 2.97 µM (inactive).
